Reference: patent publication EP4722213A1, “NITROGEN-CONTAINING FUNCTIONAL GROUP-SUBSTITUTED PYRIDAZINOPYRIDONE DERIVATIVE AND USE THEREOF” (Sichuan Huiyu Pharmaceutical Co., Ltd., priority 2023, dated 2024)
Where a name gives a salt, the structure may show the parent alone.

Tests used:
SOS1 = molecular target: T1, SOS1 (Homo sapiens, UniProt Q07889); assay: biochemical
T1 sequence (Q07889 1-1333): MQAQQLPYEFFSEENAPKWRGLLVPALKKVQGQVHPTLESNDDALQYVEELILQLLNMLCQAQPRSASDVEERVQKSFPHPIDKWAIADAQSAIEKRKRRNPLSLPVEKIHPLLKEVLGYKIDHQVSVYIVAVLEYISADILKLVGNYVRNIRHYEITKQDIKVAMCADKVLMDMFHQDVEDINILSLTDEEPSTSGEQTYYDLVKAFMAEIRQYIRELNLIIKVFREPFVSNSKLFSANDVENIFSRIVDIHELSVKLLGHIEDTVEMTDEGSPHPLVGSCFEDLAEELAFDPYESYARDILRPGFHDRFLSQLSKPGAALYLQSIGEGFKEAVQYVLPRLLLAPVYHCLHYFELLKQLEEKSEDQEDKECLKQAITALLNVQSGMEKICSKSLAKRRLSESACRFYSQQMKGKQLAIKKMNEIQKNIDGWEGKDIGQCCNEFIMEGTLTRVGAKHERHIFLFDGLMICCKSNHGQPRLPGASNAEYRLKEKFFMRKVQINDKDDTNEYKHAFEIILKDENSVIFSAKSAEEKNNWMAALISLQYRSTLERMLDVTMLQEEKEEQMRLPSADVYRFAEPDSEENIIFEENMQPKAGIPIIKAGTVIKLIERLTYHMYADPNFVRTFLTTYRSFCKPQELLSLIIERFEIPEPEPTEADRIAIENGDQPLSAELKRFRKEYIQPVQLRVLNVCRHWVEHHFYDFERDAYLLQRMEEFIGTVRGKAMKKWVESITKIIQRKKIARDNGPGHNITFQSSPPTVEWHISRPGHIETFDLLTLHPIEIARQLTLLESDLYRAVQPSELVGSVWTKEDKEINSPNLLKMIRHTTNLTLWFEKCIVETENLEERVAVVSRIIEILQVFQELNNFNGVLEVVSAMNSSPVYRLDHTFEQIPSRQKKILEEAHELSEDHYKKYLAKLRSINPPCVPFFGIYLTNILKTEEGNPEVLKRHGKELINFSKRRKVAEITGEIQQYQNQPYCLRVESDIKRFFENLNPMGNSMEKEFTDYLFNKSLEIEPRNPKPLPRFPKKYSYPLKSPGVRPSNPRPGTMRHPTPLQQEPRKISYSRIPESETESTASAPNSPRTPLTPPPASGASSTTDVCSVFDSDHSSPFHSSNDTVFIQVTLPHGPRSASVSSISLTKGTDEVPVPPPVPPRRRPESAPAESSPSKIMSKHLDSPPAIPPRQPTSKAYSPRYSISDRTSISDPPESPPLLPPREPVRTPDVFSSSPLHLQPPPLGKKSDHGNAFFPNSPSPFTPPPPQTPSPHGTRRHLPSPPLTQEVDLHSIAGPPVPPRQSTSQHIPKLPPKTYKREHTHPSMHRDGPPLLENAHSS

[1] = tested on: NCI-H358 non-small cell lung cancer cells; assay: Inhibition of NCI-H358 cell proliferation (CellTiter-Glo 3D, 7 days); format: cell-based; conditions: Homo sapiens, NCI-H358, 168 h, 3D microspheres, read-out: Inhibitory activity against NCI-H358 cell proliferation (IC50)
Description: The number of viable cells were detected by CellTiter-Glo 3D® reagent, thereby evaluating the inhibitory effect of compounds on cell proliferation. NCI-H358 non-small cell lung cancer cells (Nanjing cobioer) in the exponential growth phase were digested with trypsin-EDTA, and seeded into 96-well ultra-low attachment microplates at 100 µL per well with a density of 2000 cells/well. The cells were cultured overnight at 37°C with 5% CO2 to form microspheres. The test compounds were serially diluted 5-fold with DMSO to obtain 8 concentration gradient dilutions, then diluted with RPMI-1640 (10% FBS) cell culture medium respectively to obtain compound working solutions (2×). 100 µL per well was added to the cell supernatant, and the culture was continued for 7 days under the conditions of 37°C and 5% CO2. The well plate was removed, and 100 µL of CellTiter-Glo 3D® reagent was added. After lysis at room temperature for 10-30 minutes, 70 µL of the lysate was aspirated and transferred to a white opaque 384-well plate.
The inhibition rate was calculated by the following formula: [formula] Note: The negative control refers to the group without inhibitor, and the blank refers to the group without cells.
The inhibitory activities of some Example compounds and comparative compounds against NCI-H358 cell proliferation are shown in Table 2. Table 2. Inhibitory activity of some Example compounds against NCI-H358 cell proliferation

Compound | IC50 (SOS1) | IC50 [1]
C[C@@H](Nc1nnc(N2CCN(C)CC2)c2cc(=O)n(C3(C)CC3)cc12)c1cccc(C(F)(F)F)c1 [Example 157, (R)-1-(4-methylpiperazin-1-yl)-6-(1-methylcyclopropyl)-4-((1-(3-(trifluoromethyl)phenyl)ethyl)amino)pyr ido[3,4-d]pyridazin-7(6H)-one formate] | 5.1 nM | 52.2 nM
CCNc1nnc(N[C@H](C)c2cccc(C(F)F)c2F)c2cn(C3(C)CC3)c(=O)cc12 [Example 105, (R)-4-((1-(3-(difluoromethyl)-2-fluorophenyl)ethyl)amino)-1-(ethylamino)-6-(1-methylcyclopropyl) pyrido[3,4-d]pyridazin-7(6H)-one] | 4.7 nM | 58.1 nM
Cc1c([C@@H](C)Nc2nnc(N3CCCC3)c3cc(=O)n(C4CC4)cc23)cccc1C(F)(F)F [Example 49, (R)-6-cyclopropyl-4-((1-(2-methyl-3-(trifluoromethyl)phenyl)ethyl)amino)-1-(pyrrolidin-1-yl) pyrido[3,4-d]pyridazin-7(6H)-one] | 6 nM | 55.1 nM
C[C@@H](Nc1nnc(NC2CCOC2)c2cc(=O)n(C3(C)CC3)cc12)c1cccc(C(F)F)c1F (stereo partly drawn) [Example 119, 4-(((R)-1-(3-(difluoromethyl)-2-fluorophenyl)ethyl)amino)-6-(1-methylcyclopropyl)-1-((tetrahydrofuran-3-yl)amino)pyrido[3,4-d]pyridazin-7(6H)-one formate] | 4.3 nM | 59.1 nM
C[C@@H](Nc1nnc(N2CC3(CCC3)C2)c2cc(=O)n(C3(C)CC3)cc12)c1cccc(C(F)F)c1F [Example 191, (R)-4-((1-(3-(difluoromethyl)-2-fluorophenyl)ethyl)amino)-6-(1-methylcyclopropyl)-1-(2-azaspiro[3.3]heptan-2-yl)pyrido[3,4-d]pyridazin-7(6H)-one] | 4.5 nM | 39.3 nM
C[C@@H]1CN(c2nnc(N[C@H](C)c3cccc(C(F)(F)F)c3)c3cn(C4(C)CC4)c(=O)cc23)CCN1C [Example 176, 1-((R)-3,4-dimethylpiperazin-1-yl)-6-(1-methylcyclopropyl)-4-(((R)-1-(3-(trifluoromethyl)phenyl)ethyl)amino)pyr ido[3,4-d]pyridazin-7(6H)-one formate] | 6 nM | 32.3 nM
CCN1CCN(c2nnc(N[C@H](C)c3cccc(C(F)(F)F)c3)c3cn(C4(C)CC4)c(=O)cc23)CC1 [Example 156, (R)-1-(4-ethylpiperazin-1-yl)-6-(1-methylcyclopropyl)-4-((1-(3-(trifluoromethyl)phenyl)ethyl)amino)pyr ido[3,4-d]pyridazin-7(6H)-one formate] | 5.4 nM | 47.4 nM
C[C@@H](Nc1nnc(N2CCN(C)CC2)c2cc(=O)n(N3CCN(C)CC3)cc12)c1cccc(C(F)F)c1F [Example 151, (R)-4-((1-(3-(difluoromethyl)-2-fluorophenyl)ethyl)amino)-1,6-bis(4-methylpiperazin-1-yl)pyrido[3,4-d]pyridazin-7(6H)-one] | 3.8 nM | 39.4 nM
C[C@@H](Nc1nnc(N2CCCC2)c2cc(=O)n(C3(C)CC3)cc12)c1cccc(C(F)F)c1F [Example 5, (R)-4-((1-(3-(difluoromethyl)-2-fluorophenyl)ethyl)amino)-6-(1-methylcyclopropyl)-1-(pyrrolidin-1-yl)pyrido[3,4-d]pyridazin-7(6H)-one] | 4.7 nM | 50.1 nM
CC1CN(c2nnc(N[C@H](C)c3cccc(C(F)F)c3F)c3cn(C4(C)CC4)c(=O)cc23)C1 [Example 130, (R)-4-((1-(3-(difluoromethyl)-2-fluorophenyl)ethyl)amino)-1-(3-methylazetidin-1-yl)-6-(1-methylcyclopropyl) pyrido[3,4-d]pyridazin-7(6H)-one] | 3.4 nM | 47.8 nM
C[C@@H](Nc1nnc(N2CCN(C)C[C@@H]2C)c2cc(=O)n(C3(C)CC3)cc12)c1cccc(C(F)F)c1F [Example 195, 4-(((R)-1-(3-(difluoromethyl)-2-fluorophenyl)ethyl)amino)-1-((S)-2,4-dimethylpiperazin-1-yl)-6-(1-methylcyclopropyl) pyrido[3,4-d]pyridazin-7(6H)-one] | 3.7 nM | 25.6 nM
Cc1c([C@@H](C)Nc2nnc(N3CCCC3)c3cc(=O)n(C4(C)CC4)cc23)cccc1C(F)(F)F [Example 61, (R)-4-((1-(2-methyl-3-(trifluoromethyl)phenyl)ethyl)amino)-6-(1-methylcyclopropyl)-1-(pyrrolidin-1-yl)pyrido[3,4-d]pyridazin-7(6H)-one] | 6.1 nM | 31.8 nM
CCN1CCN(c2nnc(N[C@H](C)c3cccc(C(F)(F)CO)c3)c3cn(C4(C)CC4)c(=O)cc23)CC1 [Example 227, (R)-4-((1-(3-(1,1-difluoro-2-hydroxyethyl)phenyl)ethyl)amino)-1-(4-ethylpiperazin-1-yl)-6-(1-methylcyclopropyl) pyrido[3,4-d]pyridazin-7(6H)-one] | 3.8 nM | 48.2 nM
Cc1c([C@@H](C)Nc2nnc(N3CCN(C)CC3)c3cc(=O)n(C4(C)CC4)cc23)cccc1C(F)(F)F [Example 81, (R)-4-((1-(2-methyl-3-(trifluoromethyl)phenyl)ethyl)amino)-6-(1-methylcyclopropyl)-1-(4-methylpiperazin-1-yl)pyrido[3,4-d]pyridazin-7(6H)-one] | 6.3 nM | 65.3 nM
C[C@@H](Nc1nnc(N2CCC2)c2cc(=O)n(C3(C)CC3)cc12)c1cccc(C(F)F)c1F [Example 16, (R)-1-(azetidin-1-yl)-4-((1-(3-(difluoromethyl)-2-fluorophenyl)ethyl)amino)-6-(1-methylcyclopropyl) pyrido[3,4-d]pyridazin-7(6H)-one formate] | 4.1 nM | 57.8 nM
